From ChEMBL document CHEMBL5303711, “ECBD screening data for assay EOS300108” (2023)
Structures can show the parent of a compound that is named as a salt. Active and inactive are the calls of the source. How the calls were made is not given here.

Assay: Cytotoxicity activity against human HepG2 cells assessed by CellTiter-Glo luminescent cell viability assay.
Assay type: toxicity, cell-based
Design: assay stage confirmatory assay, source tissue liver
Conditions: HepG2 cells, read-out: IC50 relative

| SMILES | CC50 |
| --- | --- |
| CNc1nc(NCc2ccc(NS(C)(=O)=O)cc2Cl)cc(-c2ccccn2)n1 | 14.3 µM (inactive) |
| O=c1c2ccccc2cnn1-c1nc2ccccc2[nH]1 | 5.2 µM (active) |
| CCN(CC)CCN(Cc1ccc(-c2ccc(C(F)(F)F)cc2)cc1)C(=O)Cn1c(SCc2ccc(F)cc2)nc(=O)c2c1CCC2 [DARAPLADIB] | 1.5 µM (active) |
| CCNC(=O)c1[nH]nc(-c2cc(Cl)c(O)cc2O)c1-c1ccc(OC)cc1 | 1 µM (active) |
| Cc1cc(SCC#N)n2ncc(-c3ccccc3)c2n1 | 0.9 µM (active) |
| CCN1CCC(NC[C@H](C)Oc2ccc(C(C)C)cc2)CC1 | 7.1 µM (active) |
| CC(C)c1noc(-c2ccc(OCC(=O)NC(C)(C)C)cc2)n1 | 8.2 µM (active) |
| CN(C)C/C=C/C(=O)Nc1cccc(C(=O)Nc2ccc(Nc3nccc(-c4cccnc4)n3)cc2)c1 | 1 µM (active) |
| COc1ccc([N+](=O)[O-])c(S(=O)(=O)c2ccc(Cl)cc2)n1 | 2.2 µM (active) |
| CC(C)NC(=O)N1CC(Oc2ccc(-c3noc(C4CC4)n3)cc2)C1 | 2.6 µM (active) |
| O=C(Nc1nc2cccc(-c3ccc(CN4CCS(=O)(=O)CC4)cc3)n2n1)C1CC1 [FILGOTINIB] | 6.4 µM (active) |
| CN(C)c1nc2c(Br)c(Br)c(Br)c(Br)c2[nH]1 | 50 µM (inactive) |
| O=C(NCCCN1CCC2(CC1)OCc1ccccc12)[C@H]1CCCN1Cc1ccccc1 | 10.7 µM (active) |
| Oc1cc(-c2nc(-c3ccccc3)[nH]c2-c2ccncc2)ccc1Cl | 0.6 µM (active) |
| Cc1cn2c(=O)c(S(=O)(=O)NCC3CCN(Cc4ccc(Cl)cc4)CC3)c(C)nc2s1 | 11.9 µM (active) |
| O=C(O)c1ccc2c3c1cccc3c(=O)n1c3ccccc3nc21 | 3.3 µM (active) |
| CN1CCC(CNc2ccc3ncc(-c4cccc(OC(F)(F)F)c4)n3n2)CC1 [SGI-1776] | 1.5 µM (active) |
| C[C@H]1Cc2cc(S(N)(=O)=O)ccc2N1Cc1cc(=O)n2cc(Cl)ccc2n1 | 10.9 µM (active) |
| CN(C)CCNc1oc(-c2ccc(S(=O)(=O)N3CCCCCC3)cc2)nc1C#N | 18 µM (inactive) |
| O=C1c2sc3nccc(=O)n3c2C(=O)N1Cc1ccccc1 | 10.8 µM (active) |
| CCc1c2c(nc3ccc(O)cc13)-c1cc3c(c(=O)n1C2)COC(=O)[C@]3(O)CC [7-ETHYL-10-HYDROXYCAMPTOTHECIN] | 0.2 µM (active) |
| O=C(NO)c1cnc(NC2(c3ccccc3)CC2)nc1 | 7 µM (active) |
| Fc1cccc(OC2CCN(C[C@H]3[C@@H]4CNC[C@@H]43)CC2)c1 | 7.9 µM (active) |

| SMILES | CC50 |
| --- | --- |
| CCN1CCN(C(=O)C2CCCN(c3nn4cc(-c5ccc(OC)cc5)nc4s3)C2)CC1 (centres undefined) | 12.8 µM (active) |
| COc1cc(C(=O)N2CC[C@@H](O)[C@@H](N)C2)cc2nc(-c3cc4ccccc4n3CC3CC3)n(C)c12 | 6.1 µM (active) |
| CC(C)(C)OC(=O)Nc1ccc(-c2cc(C(=O)NCCCCCCC(=O)NO)no2)cc1 | 0.7 µM (active) |
| CC1(C)[C@H]2CC=C(CCNC(=O)C3CCN(C(=O)c4ccccn4)CC3)[C@@H]1C2 | 4.5 µM (inactive) |
| Cc1cccc2nc(C(=O)Nc3ccc(S(=O)(=O)Nc4nccs4)cc3)cn12 | 1.4 µM (inactive) |
| C[C@H](O)CN1CCC(CNCc2cccc(Br)c2)CC1 | 9.4 µM (active) |
| Cc1nc(-c2ccccn2)[nH]c(=O)c1CC(=O)N(C)[C@H]1CCc2ccccc21 | 6.3 µM (active) |
| c1ccc2c(c1)OC[C@H](CNc1ncnc3sccc13)O2 | 1.8 µM (active) |
| O=C(c1ccc(Nc2nccc(-c3cc4ccccc4s3)n2)cc1)N1CCC(N2CCCC2)CC1 | 1.3 µM (active) |
| c1ccc2c(c1)[I+]c1ccccc1-2 [DIPHENYLENEIODONIUM CHLORIDE] | 0.2 µM (active) |
| CN(C)CC#Cc1ccc(OCCCc2sc(N3CCc4cccc(C(=O)Nc5nc6ccccc6s5)c4C3)nc2C(=O)O)c(F)c1 [A-1155463] | 2.3 µM (active) |
| O=C(Nc1c[nH]nc1-c1nc2cc(CN3CCOCC3)ccc2[nH]1)NC1CC1 [AT-9283] | 1.2 µM (active) |
| CO[C@H]1CC[C@H](N2C(=O)CNc3ncc(-c4ccc(C(C)(C)O)nc4)nc32)CC1 [ONATASERTIB] | 6 µM (active) |
| CCOc1ncccc1C(=O)Nc1nc2cc(C#N)ccc2n1CC | 5.9 µM (active) |
| COc1ccccc1S(=O)(=O)Nc1ccc2c(c1)CN(C)C(=O)N2 | 3.7 µM (active) |
| COc1cccc(-c2ccc(=O)n(CC(=O)Nc3ccccn3)n2)c1 | 6.8 µM (active) |
| N#Cc1cnc(Nc2cc(NC[C@H]3CNCCO3)c(C(F)(F)F)cn2)cn1 [SRA-737] | 7.2 µM (active) |
| Cc1cc(N2CCOCC2)cc2[nH]c(-c3c(NC[C@@H](O)c4cccc(Cl)c4)cc[nH]c3=O)nc12 | 2.3 µM (active) |
| Cc1cc(O)c(-c2ccc([C@@H](C)CN)cc2)c2c1[nH]c(=O)c1sccc12 | 0.1 µM (active) |
| CC(C)CNC(=O)N1CC(Oc2ccc(-c3noc(C4CCOCC4)n3)cc2)C1 | 4.3 µM (active) |
| CC(C)Cn1ccnc1NC(=O)COc1ccc2ccccc2c1 | 1.1 µM (active) |
| CC1(C)CC(=O)c2cn(-c3ccccc3)c(=O)c(C(=O)Nc3cccnc3)c2C1 | 9.2 µM (inactive) |
| Fc1ccc([C@@H]2CCNC[C@H]2COc2ccc3c(c2)OCO3)cc1 [PAROXETINE HYDROCHLORIDE] | 4.1 µM (active) |

| SMILES | CC50 |
| --- | --- |
| CCOC(=O)c1cnn(-c2ccc(NC(=O)C(Cl)=C(Cl)Cl)cc2)c1C(F)(F)F | 1 µM (active) |
| CC1(C)CCC2=C(O1)c1ccccc1C(=O)C2=O [LAPACHONE] | 2.3 µM (active) |
| O=C1NCCc2[nH]c(-c3ccncc3)cc21 | 0.9 µM (active) |
| CCc1cccc(NC(=O)Nc2ccc3c(c2)N(S(C)(=O)=O)CC3)c1 | 2.9 µM (active) |
| c1ccc(-c2cnn3c(-c4ccco4)ccnc23)cc1 | 0.5 µM (active) |
| CC1(C)N=C(N)N=C(N)N1c1cccc(Cl)c1 | 0.9 µM (active) |
| COc1ccc(N(C(=O)Nc2c(C)cccc2C)c2cc(Nc3ccc(N4CCN(C)CC4)cc3)ncn2)c(OC)c1 | 6.1 µM (active) |
| Cc1cc(N2C[C@@H](C)N[C@@H](C)C2)ncc1-c1ccc(-c2nc3c(ccn3C)c(=O)[nH]2)cc1 | 1.8 µM (active) |
| Cc1[nH]c2c(C)ccc(F)c2c1CCN | 11.7 µM (active) |
| O=c1[nH]c2ccccc2n1C1CCN(c2nccc(-c3cccnc3)n2)CC1 | 11.2 µM (active) |
| CN(CC(=O)N(Cc1ccc(C2CCCCC2)cc1)c1ccc(C(=O)O)cc1)S(=O)(=O)c1c(F)c(F)c(F)c(F)c1F | 3.4 µM (active) |
| Cc1cc(N2CCN([C@@H](C)C(=O)Nc3ccc(C#N)cc3)CC2)nc(C(C)C)n1 | 11.2 µM (active) |
| CCc1ccc(NC(=O)Nc2ccc3c(c2)N(S(C)(=O)=O)CC3)cc1 | 2.3 µM (active) |
| O=C(NOCC1CC1)c1ccc(F)c(F)c1Nc1ccc(I)cc1Cl [CI-1040] | 0.3 µM (active) |
| Cc1ccc(Nc2ncc3c(n2)N(C)C(=O)N(c2cc(NC(=O)c4cccc(C(F)(F)F)c4)ccc2C)C3)cn1 | 0.1 µM (active) |
| O=C(NCc1ccc(-n2ccnc2)nc1)c1ccnc(O[C@H]2CCOC2)c1 | 8.9 µM (active) |
| CC(C)c1cc(Br)ccc1OCCCN1CCN(C)CC1 | 4.1 µM (active) |
| Oc1cc(O)c2sc(Nc3ccc(F)cc3)nc2n1 | 5.1 µM (active) |
| CC(C)(Cc1ccc2ccccc2c1)NC[C@@H](O)COc1cccc(Cl)c1C#N | 1.3 µM (active) |
| Cc1ccc(Sc2cccc3nc(N)nc(N)c23)cc1 | 8.3 µM (active) |
| COc1cc2ncnc(Nc3cccc(Br)c3)c2cc1OC | 6.7 µM (active) |
| CC(C)c1cnn2c(NCc3ccccc3)cc(NCCCCCCN)nc12 | 9.3 µM (active) |
| CCCc1nnsc1C(=O)Nc1nc2ccccc2[nH]1 | 19 µM (inactive) |

| SMILES | CC50 |
| --- | --- |
| Cc1cccc(-c2[nH]c(C(C)(C)C)nc2-c2ccc3c(c2)OCO3)n1 | 2.8 µM (active) |
| COc1ccc(-c2nc(N3CCOCC3)c3sc(CN(C)c4ncc(C(=O)NO)cn4)cc3n2)cn1 [FIMEPINOSTAT] | < 0.1 µM (active) |
| CN(CC(=O)NCCN1CCC(Cc2ccccc2)CC1)S(=O)(=O)c1cccc2nsnc12 | 9.1 µM (active) |
| C#Cc1cccc(Nc2ncnc3cc(OC)c(OCCCCCCC(=O)NO)cc23)c1 [CUDC-101] | 0.5 µM (active) |
| CCCC(=O)Nc1ccc(Nc2nc(C)cc(N3CCCC3)n2)cc1 | 5.7 µM (active) |
| Cc1nc(-c2cccc(C(=O)N3CCN(Cc4noc(-c5ccc(F)cc5)n4)CC3)c2)no1 | 5.4 µM (active) |
| CCc1nnsc1C(=O)Nc1cc(-c2cccs2)n[nH]1 | 4.8 µM (active) |
| O=C(CCCCCCNC(=O)c1cnc(N(c2ccccc2)c2ccccc2)nc1)NO [RICOLINOSTAT] | 3.5 µM (active) |
| CC(=O)C1=C(c2ccc(Br)cc2)N(C(C)=O)n2c(C)nnc2S1 | 10.9 µM (active) |
| Cc1cc(N)c2ccccc2[n+]1CCCCCCCCCC[n+]1c(C)cc(N)c2ccccc21 [DEQUALINIUM CHLORIDE] | 14.4 µM (inactive) |
| CC1(C)C2CC=C(CN(CCN3CCNCC3)C(=O)c3ccccc3Cl)C1C2 (centres undefined) | 14.3 µM (inactive) |
| CCN1CCN(Cc2ccc(C(=O)Nc3ccc(C)c(Oc4ccc5c(c4)CC(=O)N5)c3)cc2C(F)(F)F)CC1 | 6.2 µM (active) |
| O=C(c1cc(-c2ccco2)on1)N1CCc2ccccc21 | 8.6 µM (active) |
| COc1ccc(Cc2nccc3cc(OC)c(OC)cc23)cc1OC [PAPAVERINE] | 12.8 µM (active) |
| Nc1nc(C2CC(N)C2)cc(N2CCC(OCc3ccccc3)CC2)n1 (centres undefined) | 10.8 µM (active) |
| O=C(CN1C(=O)COc2ccc(S(=O)(=O)N3CCCC3)cc21)N1CCN(Cc2ccccc2)CC1 | 50 µM (inactive) |
| COc1ccc2cc(S(=O)(=O)N[C@H](CC(=O)N[C@H](Cc3ccc(CN4[C@H](C)CCC[C@@H]4C)cc3)C(=O)N(C)C(C)C)c3ccc4c(c3)OCO4)ccc2c1 | 4.1 µM (active) |
| Cc1c(O)ccc2c(CN3CCN(c4ccc(F)cc4)CC3)cc(=O)oc12 | 24.8 µM (inactive) |
| CCc1ccc(-c2cc(C(=O)N3C[C@H]4CC[C@@H]3CN(C)C4)[nH]n2)cc1 | 13.9 µM (inactive) |
| Cc1ccn(-c2ccc(NC(=O)c3ccccn3)cc2)n1 | 4.5 µM (active) |
